{
  "source": "patent US20130143835A1",
  "about": "“HCV Polymerase Inhibitors” (MEDIVIR AB, priority 2011, published 2013)",
  "data": [
    {"system": "HCV type 1b replicon in Huh-7 luc/neo (Huh-Luc) cells", "assay": "HCV replicon assay (Huh-Luc cells, luciferase read-out)", "assay_type": "cell-based", "settings": "Hepatitis C virus, Huh-7, 72 h, inhibition of HCV replication, three days incubation, luciferase activity", "excerpt": "(§1) The in vitro antiviral activity against HCV of the compounds of formula I can be tested in a cellular HCV replicon system based on Lohmann et al. (1999) Science 285:110-113, with the further modifications described by Krieger et al. (2001) Journal of Virology 75: 4614-4624 (incorporated herein by reference), which is further exemplified in the examples section. This model, while not a complete infection model for HCV, is widely accepted as the most robust and efficient model of autonomous HCV RNA replication currently available. It will be appreciated that it is important to distinguish between compounds that specifically interfere with HCV functions from those that exert cytotoxic or cytostatic effects in the HCV replicon model, and as a consequence cause a decrease in HCV RNA or linked reporter enzyme concentration. Assays are known in the field for the evaluation of cellular cytotoxicity based for example on the activity of mitochondrial enzymes using fluorogenic redox dyes such as resazurin. Furthermore, cellular counter screens exist for the evaluation of non-selective inhibition of linked reporter gene activity, such as firefly luciferase. Appropriate cell types can be equipped by stable transfection with a luciferase reporter gene whose expression is dependent on a constitutively active gene promoter, and such cells can be used as a counter-screen to eliminate non-selective inhibitors.\n(§2) The compounds of formula I may be examined for activity in the inhibition of HCV RNA replication in a cellular assay aimed at identifying compounds that inhibit a HCV functional cellular replicating cell line, also known as HCV replicons. A suitable cellular assay is based on a bicistronic expression construct, as described by Lohmann et al. (1999), Science vol. 285 pp. 110-113 with modifications described by Krieger et al. (2001), Journal of Virology 75: 4614-4624, in a multi-target screening strategy.\n(§3) The assay utilizes the stably transfected cell line Huh-7 luc/neo (hereafter referred to as Huh-Luc). This cell line harbors an RNA encoding a bicistronic expression construct comprising the wild type NS3-NS5B regions of HCV type 1b translated from an Internal Ribosome Entry Site (IRES) from encephalomyocarditis virus (EMCV), preceded by a reporter portion (FfL-luciferase), and a selectable marker portion (neo^R, neomycine phosphotransferase). The construct is bordered by 5′ and 3′ NTRs (non-translated regions) from HCV type 1b. Continued culture of the replicon cells in the presence of G418 (neo^R) is dependent on the replication of the HCV RNA. The stably transfected replicon cells that express HCV RNA, which replicates autonomously and to high levels, encoding inter alia luciferase, are used for screening the antiviral compounds.\n(§4) The replicon cells are plated in 384 well plates in the presence of the test and control compounds which are added in various concentrations. Following an incubation of three days, HCV replication is measured by assaying luciferase activity (using standard luciferase assay substrates and reagents and a Perkin Elmer ViewLux™ ultraHTS microplate imager). Replicon cells in the control cultures have high luciferase expression in the absence of any inhibitor. The inhibitory activity of a compound on luciferase activity is monitored on the Huh-Luc cells, enabling a dose-response curve for each test compound. EC50 values are then calculated, which value represents the amount of the compound required to decrease the level of detected luciferase activity by 50%, or more specifically, the ability of the genetically linked HCV replicon RNA to replicate.", "units": {"EC50": "nM"}, "values": [
      {"smiles": "CCCOC(=O)[C@H](C)NP(=O)(OC[C@H]1O[C@@H](n2ccc(=O)[nH]c2=O)[C@](C)(N)[C@@H]1O)Oc1ccccc1", "note": "(single isomer, unassigned) [Example 24A]", "EC50": 2900}
    ]},
    {"system": "HCV type 1b replicon in Huh-7 luc/neo (Huh-Luc) cells", "assay": "HCV replicon assay (Huh-Luc cells, luciferase read-out)", "assay_type": "cell-based", "settings": "inhibition of HCV replication, three days incubation, luciferase activity", "excerpt": "as §1, §2, §3, §4", "units": {"EC50": "nM"}, "values": [
      {"smiles": "C[C@H](NP(=O)(OC[C@H]1O[C@@H](n2ccc(=O)[nH]c2=O)[C@](C)(N)[C@@H]1O)Oc1ccccc1)C(=O)OC1CCCCCCC1", "note": "(single isomer, unassigned) [Example 10B]", "EC50": 290},
      {"smiles": "CCC[C@H](C)OC(=O)[C@@H](C)NP(=O)(OC[C@H]1O[C@@H](n2ccc(=O)[nH]c2=O)[C@](C)(N)[C@@H]1O)Oc1ccccc1", "note": "(single isomer, unassigned) [Example 25B]", "EC50": 380},
      {"smiles": "CCCC(CCC)COC(=O)[C@H](C)NP(=O)(OC[C@H]1O[C@@H](n2ccc(=O)[nH]c2=O)[C@](C)(N)[C@@H]1O)Oc1ccccc1", "note": "(single isomer, unassigned) [Example 14B]", "EC50": 420},
      {"smiles": "C[C@H](NP(=O)(OC[C@H]1O[C@@H](n2ccc(=O)[nH]c2=O)[C@](C)(N)[C@@H]1O)Oc1ccccc1)C(=O)OC1CCC1", "note": "(single isomer, unassigned) [Example 8B]", "EC50": 800},
      {"smiles": "C[C@H](NP(=O)(OC[C@H]1O[C@@H](n2ccc(=O)[nH]c2=O)[C@](C)(N)[C@@H]1O)Oc1ccccc1)C(=O)OC1CCCCCC1", "note": "(single isomer, unassigned) [Example 7A]", "EC50": 3000},
      {"smiles": "C[C@@]1(N)[C@H](O)[C@@H](COP(=O)(O)O)O[C@H]1n1ccc(=O)[nH]c1=O", "note": "[Example 4, ((2R,3S,4R,5R)-4-amino-5-(2,4-dioxo-3,4-dihydropyrimidin-1(2H)-yl)-3-hydroxy-4-methyltetrahydrofuran-2-yl)methyl dihydrogen Phosphate]", "EC50": "> 50000"},
      {"smiles": "CC(C)COC(=O)[C@H](C)NP(=O)(OC[C@H]1O[C@@H](n2ccc(=O)[nH]c2=O)[C@](C)(N)[C@@H]1O)Oc1ccccc1", "note": "(single isomer, unassigned) [Example 17A]", "EC50": 2600},
      {"smiles": "CCCCCOC(=O)[C@H](C)NP(=O)(OC[C@H]1O[C@@H](n2ccc(=O)[nH]c2=O)[C@](C)(N)[C@@H]1O)Oc1ccccc1", "note": "(single isomer, unassigned) [Example 18A]", "EC50": 1800},
      {"smiles": "C[C@H](NP(=O)(OC[C@H]1O[C@@H](n2ccc(=O)[nH]c2=O)[C@](C)(N)[C@@H]1O)Oc1ccccc1)C(=O)OC1CCCCC1", "note": "(single isomer, unassigned) [Example 12A]", "EC50": 380},
      {"smiles": "CCOC(=O)[C@H](C)NP(=O)(OC[C@H]1O[C@@H](n2ccc(=O)[nH]c2=O)[C@](C)(N)[C@@H]1O)Oc1ccccc1", "note": "(single isomer, unassigned) [Example 11B]", "EC50": 980},
      {"smiles": "C[C@H](NP(=O)(OC[C@H]1O[C@@H](n2ccc(=O)[nH]c2=O)[C@](C)(N)[C@@H]1O)Oc1ccccc1)C(=O)OCC1CCCC1", "note": "(single isomer, unassigned) [Example 27B]", "EC50": 380},
      {"smiles": "CC[C@@H](C)OC(=O)[C@H](C)NP(=O)(OC[C@H]1O[C@@H](n2ccc(=O)[nH]c2=O)[C@](C)(N)[C@@H]1O)Oc1ccccc1", "note": "(single isomer, unassigned) [Example 21B]", "EC50": 740},
      {"smiles": "CCC(CC)OC(=O)[C@H](C)NP(=O)(OC[C@H]1O[C@@H](n2ccc(=O)[nH]c2=O)[C@](C)(N)[C@@H]1O)Oc1ccccc1", "note": "(single isomer, unassigned) [Example 28A]", "EC50": 34000},
      {"smiles": "CC[C@@H](C)OC(=O)[C@H](C)NP(=O)(OC[C@H]1O[C@@H](n2ccc(=O)[nH]c2=O)[C@](C)(N)[C@@H]1O)Oc1ccccc1", "note": "(single isomer, unassigned) [Example 22A]", "EC50": 21000},
      {"smiles": "CC(C)COC(=O)[C@H](C)NP(=O)(OC[C@H]1O[C@@H](n2ccc(=O)[nH]c2=O)[C@](C)(N)[C@@H]1O)Oc1ccccc1", "note": "(single isomer, unassigned) [Example 17B]", "EC50": 600},
      {"smiles": "C[C@H](NP(=O)(OC[C@H]1O[C@@H](n2ccc(=O)[nH]c2=O)[C@](C)(N)[C@@H]1O)Oc1ccccc1)C(=O)OCCC(C)(C)C", "note": "(single isomer, unassigned) [Example 6B]", "EC50": 490},
      {"smiles": "C[C@H](NP(=O)(OC[C@H]1O[C@@H](n2ccc(=O)[nH]c2=O)[C@](C)(N)[C@@H]1O)Oc1ccccc1)C(=O)OCCC(C)(C)C", "note": "(single isomer, unassigned) [Example 6A]", "EC50": 2300},
      {"smiles": "CCCC(CCC)COC(=O)[C@H](C)NP(=O)(OC[C@H]1O[C@@H](n2ccc(=O)[nH]c2=O)[C@](C)(N)[C@@H]1O)Oc1ccccc1", "note": "(single isomer, unassigned) [Example 14A]", "EC50": 1600},
      {"smiles": "CCCOC(=O)[C@H](C)NP(=O)(OC[C@H]1O[C@@H](n2ccc(=O)[nH]c2=O)[C@](C)(N)[C@@H]1O)Oc1ccccc1", "note": "(single isomer, unassigned) [Example 24B]", "EC50": 1500},
      {"smiles": "CC(C)OC(=O)[C@H](C)NP(=O)(OC[C@H]1O[C@@H](n2ccc(=O)[nH]c2=O)[C@](C)(N)[C@@H]1O)Oc1ccccc1", "note": "(single isomer, unassigned) [Example 9B]", "EC50": 920},
      {"smiles": "C[C@H](NP(=O)(OC[C@H]1O[C@@H](n2ccc(=O)[nH]c2=O)[C@](C)(N)[C@@H]1O)Oc1ccccc1)C(=O)OC1CCCCCC1", "note": "(single isomer, unassigned) [Example 7B]", "EC50": 190},
      {"smiles": "C[C@H](NP(=O)(OC[C@H]1O[C@@H](n2ccc(=O)[nH]c2=O)[C@](C)(N)[C@@H]1O)Oc1ccccc1)C(=O)OCC(C)(C)C", "note": "(single isomer, unassigned) [Example 13B]", "EC50": 300},
      {"smiles": "CC[C@@H](C)OC(=O)[C@H](C)NP(=O)(OC[C@H]1O[C@@H](n2ccc(=O)[nH]c2=O)[C@](C)(N)[C@@H]1O)Oc1ccccc1", "note": "(single isomer, unassigned) [Example 21A]", "EC50": 5100},
      {"smiles": "COC(=O)[C@H](C)NP(=O)(OC[C@H]1O[C@@H](n2ccc(=O)[nH]c2=O)[C@](C)(N)[C@@H]1O)Oc1ccccc1", "note": "(single isomer, unassigned) [Example 16B]", "EC50": 2100},
      {"smiles": "CCCCOC(=O)[C@H](C)NP(=O)(OC[C@H]1O[C@@H](n2ccc(=O)[nH]c2=O)[C@](C)(N)[C@@H]1O)Oc1ccccc1", "note": "(single isomer, unassigned) [Example 19B]", "EC50": 290},
      {"smiles": "C[C@H](NP(=O)(OC[C@H]1O[C@@H](n2ccc(=O)[nH]c2=O)[C@](C)(N)[C@@H]1O)Oc1ccccc1)C(=O)OC1CCCC1", "note": "(single isomer, unassigned) [Example 5A]", "EC50": 4700},
      {"smiles": "C[C@H](NP(=O)(OC[C@H]1O[C@@H](n2ccc(=O)[nH]c2=O)[C@](C)(N)[C@@H]1O)Oc1ccccc1)C(=O)OC1CCCC1", "note": "(single isomer, unassigned) [Example 5B]", "EC50": 470},
      {"smiles": "C[C@H](NP(=O)(OC[C@H]1O[C@@H](n2ccc(=O)[nH]c2=O)[C@](C)(N)[C@@H]1O)Oc1ccccc1)C(=O)OCc1ccccc1", "note": "(single isomer, unassigned) [Example 15A]", "EC50": 3100},
      {"smiles": "CCC(CC)COC(=O)[C@H](C)NP(=O)(OC[C@H]1O[C@@H](n2ccc(=O)[nH]c2=O)[C@](C)(N)[C@@H]1O)Oc1ccccc1", "note": "(single isomer, unassigned) [Example 20A]", "EC50": 1600},
      {"smiles": "C[C@H](NP(=O)(OC[C@H]1O[C@@H](n2ccc(=O)[nH]c2=O)[C@](C)(N)[C@@H]1O)Oc1ccccc1)C(=O)OC1CCC1", "note": "(single isomer, unassigned) [Example 8A]", "EC50": 1900},
      {"smiles": "CCCCCOC(=O)[C@H](C)NP(=O)(OC[C@H]1O[C@@H](n2ccc(=O)[nH]c2=O)[C@](C)(N)[C@@H]1O)Oc1ccccc1", "note": "(single isomer, unassigned) [Example 18B]", "EC50": 320}
    ]}
  ]
}
